Key:
expert panelists [1] = assay: Test Example 2: sensory comparison of polygodial with known carbonation sensation enhancing agents; type: in vivo, human
Description: Sensory evaluation of the samples of Example 4 and Comparative Examples 3 to 11 was performed by 10 expert panelists based on the following Evaluation criteria 1 to 3 using the carbonated water for evaluation of Preparation Example 1 as a control.
[Evaluation Criteria 1] (Strength of Carbonate Stimulation)
(Mode of Generation of Carbonate Stimulation)
Mode of generation of carbonate stimulation was defined as follows and the timing when the highest effect was felt was selected. The timing that won a majority (6 panelists or more) was regarded as the mode of generation of carbonate stimulation of the substance. In the case of a tie (5 panelists for each), the result was referred to as middle.
Initial: stimulation felt immediately after the sample was put in one's mouth. The impact at the moment when one took the sample.
Last: stimulation felt after swallowing the sample. Aftertaste and feeling when going down. Delayed effect.
[Evaluation Criteria 3] (Characteristics of Flavor)
Majority opinions were obtained from panelists' free descriptions of characteristics of flavor they felt.

expert panelists [2] = assay: Test Example 1: sensory evaluation of carbonated water with polygodial; type: in vivo, human
Description: Carbonated water for evaluation was prepared by diluting commercially available carbonated water (pressure of carbon dioxide gas before opening 3.0 kg/cm^2) with water such that the pressure of carbon dioxide gas was 1.3 kg/cm^2.
Polygodial (manufactured by Wako Pure Chemical Industries, Ltd.) was added to the carbonated water for evaluation of Preparation Example 1 such that the concentration was as shown in Table 1 described later and this was referred to as Comparative Examples 1 and 2, and Examples 1 to 6.
20 ppm of the Persicaria hydropiper extract of Production Example 1 was added to the carbonated water for evaluation of Preparation Example 1 and this was referred to as Example 7.
0.05 ppm of Tasmannia lanceolata oil (manufactured by ESSENTIAL OILS OF TASMANIA PTY LTD, polygodial content 20%) was added to the carbonated water for evaluation of Preparation Example 1 and this was referred to as Example 8. […]
Sensory evaluation was performed by 10 expert panelists based on the following Evaluation criteria using a product to which polygodial was not added as a control. For the strength of an offensive taste and odor, the average of the score of the 10 panelists was calculated and determined as the result of evaluation. […]

expert panelists [3] = assay: Test Example 3: equivalent carbon dioxide gas pressure by paired comparison; type: in vivo, human; settings: base 1.3 kg/cm^2, polygodial 10 ppb (Example 7)
Excerpt: The strength of carbonate stimulation of the carbonated water of Example 7 prepared by adding the Persicaria hydropiper extract of Production Example 1 to the carbonated water for evaluation of Preparation Example 1 (1.3 kg/cm^2) and the strength of carbonate stimulation of the carbonated waters described in Table 3 (1.4 kg/cm^2, 1.6 kg/cm^2, 1.9 kg/cm^2) separately prepared as a control were compared by 18 to 20 expert panelists. The number of panelists who judged that the carbonated water of Example 7 had strong carbonation and the selectivity of the carbonated water of Example 7 are shown in Table 3.
Furthermore, the relation between the concentration of carbon dioxide gas in the control product and the selectivity of the carbonated water of Example 7 was plotted (see FIG. 1).
Thus, it is considered that addition of polygodial has the same effect as increasing the pressure of carbon dioxide gas by 0.3 kg/cm^2.

[4] = Decomposition of polygodial on distillation; type: physicochemical; settings: yield significantly reduced
Excerpt: Thus, distillation needs to be performed under reduced pressure using a known vacuum pump such as oil rotary pump, a mechanical booster pump and a diffusion pump.

Row | Evaporating temperature at which polygodial is decomposed [4] | Structure (SMILES) | Timing of the effect of enhancing carbonation sensation (expert panelists [1]) | Enhancement of carbonation sensation (expert panelists [2]; polygodial 0.01 ppb) | Enhancement of carbonation sensation and pungency (expert panelists [2]; polygodial 400 ppb) | Increase of pressure of carbon dioxide gas having the same effect as addition (expert panelists [3]) [kg/cm^2]
1 |  | C/C=C/C=C\CC/C=C/C(=O)NCC(C)C [spilanthol, (2E,6Z,8E)-N-Isobutyl-2,6,8-decatrienamide, reference compound] | relatively delayed |  |  | 
2 | more than 150 °C | CC1(C)CCC[C@]2(C)[C@@H](C=O)C(C=O)=CC[C@@H]12 [polygodial, (1R,4aS,8aS)-5,5,8a-trimethyl-1,4,4a,6,7,8-hexahydronaphthalene-1,2-dicarboxaldehyde] | immediate effect | not enhanced | pungency appeared with enhanced carbonation sensation | 0.3

— patent US12102104B2, “Carbonation sensation enhancing agent for foods and beverages having carbonate stimulation” (Ogawa & Co., Ltd., priority 2018, dated 2024)
